Laboratory results from BindingDB's records for doi:10.1073/pnas.0608389103 (Johns Hopkins University, 2006).

Assays:
[1] = target: Methionine aminopeptidase 2 (Homo sapiens, UniProt P50579); assay: MetAP Inhibition Assay; details: pH 7.5; 22 °C
Description: (§1) The MetAP reaction with Co2+ as a cofactor is coupled to a prolyl aminopeptidase (ProAP) using Met-Pro-p-nitroanilide as substrate. MetAP-catalyzed cleavage of the N-terminal methionine produces prolyl-p-nitroanilide, which is rapidly hydrolyzed by ProAP to release a chromogenic product. […] The initial rate was calculated from the early part of the reaction progress curve (<5 min). Activity assays were performed in triplicate using eight to 16 concentrations of substrate or inhibitor.

[2] = target: Methionine aminopeptidase 1 (Homo sapiens, UniProt P53582); assay: MetAP Inhibition Assay; details: pH 7.5; 22 °C
Description: as §1

Chain of Methionine aminopeptidase 2 (P50579 whole entry): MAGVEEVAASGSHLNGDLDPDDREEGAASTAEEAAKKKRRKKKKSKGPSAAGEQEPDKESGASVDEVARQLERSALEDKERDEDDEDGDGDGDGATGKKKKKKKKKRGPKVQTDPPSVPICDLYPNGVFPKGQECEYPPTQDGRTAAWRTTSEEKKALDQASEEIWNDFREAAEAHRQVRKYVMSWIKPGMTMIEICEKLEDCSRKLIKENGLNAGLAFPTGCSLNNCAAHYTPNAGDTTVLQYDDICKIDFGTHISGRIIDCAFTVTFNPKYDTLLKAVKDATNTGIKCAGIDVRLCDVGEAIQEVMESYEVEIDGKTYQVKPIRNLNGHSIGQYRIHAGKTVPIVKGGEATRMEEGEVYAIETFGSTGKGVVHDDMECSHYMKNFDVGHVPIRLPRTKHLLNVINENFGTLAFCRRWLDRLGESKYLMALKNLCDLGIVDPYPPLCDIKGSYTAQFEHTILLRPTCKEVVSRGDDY

IC50 [1] [µM] | IC50 [2] [µM] | Structure (SMILES)
> 500 | 3.5 | O=C(CCc1ccccc1)Nc1cccnc1C(=O)Nc1nccs1 [3-(3-phenylpropanamido)-N-(1,3-thiazol-2-yl)pyridine-2-carboxamide]
> 500 | > 500 | CCCCCCCC(=O)Nc1cccnc1C(=O)Nc1nccs1 [3-octanamido-N-(1,3-thiazol-2-yl)pyridine-2-carboxamide]

Further lines, the compound ahead of its results:

Structure (SMILES) | IC50 [1] [µM] | IC50 [2] [µM]
CC(C)(C)C(=O)Nc1cccnc1C(=O)Nc1nccs1 [3-(2,2-dimethylpropanamido)-N-(1,3-thiazol-2-yl)pyridine-2-carboxamide] | > 500 | 
CC(C)C=Nc1cccnc1C(=O)Nc1nccs1 [3-[(E)-(2-methylpropylidene)amino]-N-(1,3-thiazol-2-yl)pyridine-2-carboxamide] | > 1000 | 6.4
CC(C)(C)OC(=O)Nc1cccnc1C(=O)Nc1nccs1 [tert-butyl N-[2-(1,3-thiazol-2-ylcarbamoyl)pyridin-3-yl]carbamate] | > 300 | 
